Converted amounts (≈) assume the structure as drawn.

For data set [1], the system named is Candida Glabrata (ATCC 90030). Description: Assessment of the mechanism of action: antifungal activity with or without 100 μM Fe3+. It counts as cell-based. Conditions: 100 μM FeCl3 in the test medium, OD at 540 nm. The procedure: To verify if the compounds mechanism of action is the chelation of iron ions, the MIC determination with Candida glabrata (ATCC 90030) strain was performed by the addition of excessive iron ions (100 μM FeCl3) in the test medium. The viability of cells exposed to drugs, with or without the metal ion Fe^3+, was evaluated by the OD measure at 540 nm.
The potency of compounds described in Example 3, 4, 11 12, E8 and NiK-29298 were evaluated on Candida glabrata in presence and in absence of 100 μM (100 micromoles) Fe^3+.
In all figures, the lines and dots represent the percent inhibition of the fungal growth (in ordinate) by adding different concentrations of antifungal agents (in abscissa). Blue lines and dots are the experiments performed without iron supplementation, while red lines and dots represent the results of the experiments performed in presence of 100 μM Fe^3+. […] Conversely, Fe^3+ has no effect on amphotericin, an antifungal agent known in the art to have a mechanism of action different from that of ciclopirox.

Data set [2] concerns Candida Albicans (ATCC 90028). As to the kind of experiment: Broth micro-dilution susceptibility test (MIC). It counts as cell-based. Particulars: ATCC90028, geometric mean of two single experiments, 48 h at 35° C. As to the method: (§1) Trichophyton Rubrum (ATCC 28188, PBI International); Trichophyton Mentagrophytes (ATCC 9533, PBI International); Aspergillus Niger (ATCC 16404, PBI International); Scopulariopsis Brevicaulis (ATCC 36840, DSMZ); Candida Albicans (ATCC 90028, PBI International); Candida Glabrata (ATCC 90030, DSMZ).
(§2) Strains were prepared from freeze-dried ampoules or freeze-dried pellets. An isolation of the suspensions was made on Potato Dextrose Agar (PDA) to test the strains purity. A strains' massive growth was then made streaking microbial suspensions on PDA plates.
(§3) Incubation was at 30° C. for 48-72 Hours (Candida yeasts) and for 7-10 days (filamentous fungi).
(§4) The yeasts' colonies and the filamentous fungi's conidia were harvested with 3-5 mL of RPMI 1640+50% glycerol and the aliquots frozen at −80° C.
(§5) Compounds' minimal inhibition concentration (MIC) was determined through broth micro-dilution susceptibility test using a method developed in agreement with the National Committee for Clinical Laboratory Standards (NCCLS) (National Committee for Clinical Laboratory Standards. Reference Method for Broth Dilution Antifungal Susceptibility Testing of Yeasts; Approved standard-Second Edition M27-A2. 2002; Vol. 22, No. 15) (National Committee for Clinical Laboratory Standards. Reference Method for Broth Dilution Antifungal Susceptibility Testing of Filamentous Fungi; Approved standard M38-A. 2002; Vol. 22, No. 16).
(§6) Assays were carried out in RPMI 1640 with L-glutamine medium buffered to pH 7 with 0.165M 3-(N-morpholino)propanesulfonic acid (MOPS) and 10M NaOH and supplemented with 18 g glucose/liter. The tests were performed using 96 well sterile plates (inoculum size of 1×10^5 CFU/mL). Compounds stock solutions were prepared at 12.8 mg/mL in 100% DMSO. A series of twofold dilutions were prepared in plate using RPMI 1640. Final concentrations ranged from 0.125 to 128 μg/mL at 1% DMSO.
For orientation: Dilution methods test growth across graded concentrations, often in twofold steps.

Data set [3] has as its system Scopulariopsis Brevicaulis (ATCC 36840). As to the kind of experiment: Broth micro-dilution susceptibility test (MIC). It is filed as cell-based. Particulars: ATCC36840, 120 h, geometric mean of two single experiments, five days at 35° C. As to the method:
as §1, §2, §3, §4, §5, §6

The test system of data set [4] is Trichophyton Mentagrophytes (ATCC 9533). As to the kind of experiment: Broth micro-dilution susceptibility test (MIC). It is filed as cell-based. Particulars: ATCC9533, 120 h, geometric mean of two single experiments, five days at 35° C., read-out: MIC Tricophyton Mentagrophytes ATCC 9533. The procedure: as §1, §2, §3, §4, §5, §6
Data set [5] relates to Candida Glabrata (ATCC 90030). As to the kind of experiment: Broth micro-dilution susceptibility test (MIC). It is filed as cell-based. Conditions: Nakaseomyces glabratus, ATCC90030; geometric mean of two single experiments; 48 h at 35° C. The procedure:
as §1, §2, §3, §4, §5, §6

Data set [6] deals with Aspergillus Niger (ATCC 16404). Description: Broth micro-dilution susceptibility test (MIC). It counts as cell-based. Conditions: ATCC16404, 120 h, geometric mean of two single experiments, five days at 35° C. As to the method:
as §1, §2, §3, §4, §5, §6

Data set [7] concerns Trichophyton Rubrum (ATCC 28188). Description: Broth micro-dilution susceptibility test (MIC). It counts as cell-based. Particulars: ATCC28188, 120 h, geometric mean of two single experiments, five days at 35° C., read-out: MIC Trycophyton Rubrum ATCC 28188. The procedure: as §1, §2, §3, §4, §5, §6
For data set [8], the system named is 6 strains tested, including yeasts, dermatophytes and molds. As to the kind of experiment: Spectrum of antifungal activity over the 6 strains tested. It is filed as cell-based. Particulars: 6 strains: yeasts. The procedure:
as §1, §5, §6

The subject of data set [9] is invasive aspergillosis. Particulars: daily administered at 10 mg/kg; cited from earlier work.

`Cc1cc(C2CCCCC2)n(O)c(=O)c1` [ciclopirox]: the “Effect of Fe3+ on the antifungal activity (percent inhibition of fungal growth)” value (shortened to “Effect … (percent inhibition of fungal growth)”) in [1] is “completely inhibited”.

`O=C(Nc1ccccc1)c1ccc2cccnc2c1O` [Example 7, 8-Hydroxy-N-phenyl-quinoline-7-carboxamide]: the MIC in data set [2] stood at 0.5 µg/mL (≈ 1.89 µM); in [3] it was 2 µg/mL (≈ 7.57 µM); in [4], 0.71 µg/mL (≈ 2.69 µM); in [5], 1 µg/mL (≈ 3.78 µM); in [6], 0.5 µg/mL (≈ 1.89 µM); in data set [7], 0.5 µg/mL (≈ 1.89 µM).

In the case of `O=C(NCc1ccccc1O)c1ccc2cccnc2c1O` [Example 8, 8-Hydroxy-N-(2-hydroxybenzyl)quinoline-7-carboxamide], the MIC came to 2 µg/mL (≈ 6.8 µM) in data set [2]; 1 µg/mL (≈ 3.4 µM) in data set [3]; 0.5 µg/mL (≈ 1.7 µM) in [4]; 2 µg/mL (≈ 6.8 µM) in data set [5]; 0.25 µg/mL (≈ 0.849 µM) in [6]; 0.71 µg/mL (≈ 2.41 µM) in data set [7].

With `O=C(NCC1CCCCC1)c1ccc2cccnc2c1O` [Example 2, 8-Hydroxy-N-(cyclohexylmethyl)quinoline-7-carboxamide], the MIC in data set [2] was determined as 1.41 µg/mL (≈ 4.96 µM); in [3], 2 µg/mL (≈ 7.03 µM); in data set [4], 0.71 µg/mL (≈ 2.5 µM); in data set [5], 1.41 µg/mL (≈ 4.96 µM); in data set [6] it was 0.35 µg/mL (≈ 1.23 µM); in [7], 1 µg/mL (≈ 3.52 µM).

Regarding `O=C(NCc1cccnc1)c1ccc2cccnc2c1O` [Example 10, 8-Hydroxy-N-(pyridin-3-ylmethyl)quinoline-7-carboxamide], the MIC in [2] amounted to 4 µg/mL (≈ 14.3 µM); in data set [3], 1 µg/mL (≈ 3.58 µM); in data set [4], 2 µg/mL (≈ 7.16 µM); in [5] it was 11.3 µg/mL (≈ 40.5 µM); in [6] it was 1 µg/mL (≈ 3.58 µM); in data set [7] it was 2 µg/mL (≈ 7.16 µM).

`O=C(NCc1ccc(C(F)(F)F)cc1)c1ccc2cccnc2c1O` [Example 6, 8-Hydroxy-N-(4-(trifluoromethyl)benzyl)quinoline-7-carboxamide]: the MIC is 1.41 µg/mL (≈ 4.07 µM) in data set [2]; 1.41 µg/mL (≈ 4.07 µM) in [3]; 1 µg/mL (≈ 2.89 µM) in [4]; 1.41 µg/mL (≈ 4.07 µM) in [5]; 0.5 µg/mL (≈ 1.44 µM) in [6]; 1.41 µg/mL (≈ 4.07 µM) in data set [7].

For `O=C(NCc1ccco1)c1ccc2cccnc2c1O` [Example 9, 8-Hydroxy-N-(furan-2-ylmethyl)quinoline-7-carboxamide], the minimum inhibitory concentration (MIC) in data set [2] came out at 0.71 µg/mL (≈ 2.65 µM); in data set [3], 0.71 µg/mL (≈ 2.65 µM); in data set [4], 1 µg/mL (≈ 3.73 µM); in data set [5], 0.71 µg/mL (≈ 2.65 µM); in data set [6], 1 µg/mL (≈ 3.73 µM); in data set [7], 0.71 µg/mL (≈ 2.65 µM).

`O=C(NCc1ccccc1)c1ccc2ncccc2c1` [NiK-29298]: the “Spectrum of antifungal activity” value in [8] is given as “active only on yeasts”. Besides, the “Effect … (percent inhibition of fungal growth)” value in [1] is recorded as “not inhibited”.

With `COc1ccc(NC(=O)c2ccc3cccnc3c2O)cc1` [Example 5, 8-Hydroxy-N-(4-methoxyphenyl)quinoline-7-carboxamide], the MIC turned out to be 0.5 µg/mL (≈ 1.7 µM) in data set [2]; 0.71 µg/mL (≈ 2.41 µM) in [3]; 0.5 µg/mL (≈ 1.7 µM) in [4]; 0.71 µg/mL (≈ 2.41 µM) in data set [5]; 0.71 µg/mL (≈ 2.41 µM) in data set [6]; 0.35 µg/mL (≈ 1.19 µM) in [7].

With `O=C(NCc1ccccc1)c1ccc2cccnc2c1O` [Example 3, 8-Hydroxy-N-benzyl-quinoline-7-carboxamide], the MIC in [2] turned out to be 1 µg/mL (≈ 3.59 µM); in data set [3], 0.35 µg/mL (≈ 1.26 µM); in [4] it was 0.18 µg/mL (≈ 0.647 µM); in data set [5], 1 µg/mL (≈ 3.59 µM); in data set [6], 0.18 µg/mL (≈ 0.647 µM); in data set [7], 0.35 µg/mL (≈ 1.26 µM).

With `O=C(NCc1ccc(Cl)cc1)c1ccc2cccnc2c1O` [Example 4, 8-Hydroxy-N-(4-chlorobenzyl)quinoline-7-carboxamide], the minimum inhibitory concentration (MIC) in data set [2] worked out at 2 µg/mL (≈ 6.39 µM); in data set [3], 0.71 µg/mL (≈ 2.27 µM); in [4], 0.5 µg/mL (≈ 1.6 µM); in data set [5], 1 µg/mL (≈ 3.2 µM); in data set [6], 0.35 µg/mL (≈ 1.12 µM); in data set [7], 0.71 µg/mL (≈ 2.27 µM).

For the compound `O=C(NCc1ccc(OCc2ccccc2)cc1)c1ccc2ncccc2c1` [Example E8], the “Spectrum of antifungal activity” value in data set [8] is “active only on yeasts”. In data set [1], the “Effect … (percent inhibition of fungal growth)” value is reported as “not inhibited”.

On to `O=C(NCc1cccs1)c1ccc2cccnc2c1O` [Example 1, 8-Hydroxy-N-(thiophen-2-ylmethyl)quinoline-7-carboxamide], for which the MIC in data set [2] is 1 µg/mL (≈ 3.52 µM); in data set [3] it was 0.25 µg/mL (≈ 0.879 µM); in data set [4], 0.5 µg/mL (≈ 1.76 µM); in data set [5] it was 1 µg/mL (≈ 3.52 µM); in [6] it was 0.25 µg/mL (≈ 0.879 µM); in data set [7] it was 0.5 µg/mL (≈ 1.76 µM).

Take `COc1ccc(CNC(=O)c2ccc3cccnc3c2O)cc1` [Example 11, 8-Hydroxy-N-(4-methoxybenzyl)quinoline-7-carboxamide]: the MIC came out at 2 µg/mL (≈ 6.49 µM) in [2]; 1 µg/mL (≈ 3.24 µM) in [3]; 1 µg/mL (≈ 3.24 µM) in data set [4]; 1 µg/mL (≈ 3.24 µM) in data set [6]; 1 µg/mL (≈ 3.24 µM) in [7].

Turning to `C[C@@H]1[C@H](O)[C@@H](C)/C=C/C=C/C=C/C=C/C=C/C=C/C=C/[C@H](O[C@@H]2O[C@H](C)[C@@H](O)[C@H](N)[C@@H]2O)C[C@@H]2O[C@](O)(C[C@@H](O)C[C@@H](O)[C@H](O)CC[C@@H](O)C[C@@H](O)CC(=O)O[C@H]1C)C[C@H](O)[C@H]2C(=O)O` [amphotericin, Amphotericin B], the rates of nephrotoxicity in data set [9] was 31%. For the same compound, the “Effect … (percent inhibition of fungal growth)” value in data set [1] is on record as “no effect”.

Broadly, the MIC is the least concentration at which growth counts as inhibited.

These data come from US8969380B2, “Secondary 8-hydroxyquinoline-7-carboxamide derivatives for use as antifungal agents” (Polichem SA, priority 2009, dated 2015).
